Laboratory results from patent publication US20140303164A1, “THERAPEUTIC COMPOUNDS” (Gilead Sciences, Inc., priority 2013, published 2014).

Key:
[1] = Test B: Cytotoxicity Assay; format: cell-based; conditions: human, uninfected MT-4 cells, same protocol as Test A
In short: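 Uninfected MT-4 cells (2000 per well) incubated with diluted compound at 37° C. for 5 days, following the antiviral protocol without HIV-IIIb.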

HIV-IIIb = test: Test A: Antiviral Assay in MT4 Cells; format: cell-based, HIV-1; conditions: Human immunodeficiency virus 1, IIIB, MT4, 120 h; for inhibition at 0.2 µM: read-out: % inhibition at 0.2 μM; for inhibition at 2 µM: read-out: % inhibition at 2 μM
Method: Test A: Antiviral Assay in MT4 Cells
MT-4 cells were next mixed with HIV-IIIb at an m.o.i of 0.003 for 1 hour, after which time 35 μL of virus/cell mixture (2000 cells) was immediately added to each well containing 40 μL of diluted compound. The plates were then incubated at 37° C. for 5 days. […] Cell lysis was carried out by incubating at room temperature for 10 min and then chemiluminescence was read.

Compound | CC50 at 5 days [1] | inhibition at 0.2 µM (HIV-IIIb) | inhibition at 2 µM (HIV-IIIb)
Cn1nc(NS(C)(=O)=O)c2c(Cl)ccc(-c3ccc(C#CC(C)(C)O)nc3[C@H](Cc3cc(F)cc(F)c3)NC(=O)Cn3nc(N)c4c3C(F)(F)[C@@H]3C[C@H]43)c21 [Compound 148B, 2-((3bS,4aR)-3-amino-5,5-difluoro-3b,4,4a,5-tetrahydro-1H-cyclopropa[3,4]cyclopenta[1,2-c]pyrazol-1-yl)-N—((S)-1-(3-(4-chloro-1-methyl-3-(methylsulfonamido)-1H-indazol-7-yl)-6-(3-hydroxy-3-methylbut-1-yn-1-yl)pyridin-2-yl)-2-(3,5-difluorophenyl)ethyl)acetamide] | 23.3 µM | 83% | 83%
Cn1nc(NS(C)(=O)=O)c2c(Cl)ccc(-c3ccc(C#CC(C)(C)O)nc3[C@H](Cc3cc(F)cc(F)c3)NC(=O)Cn3nc(Cl)c4c3C(F)(F)[C@@H]3C[C@H]43)c21 [Compound 149, N—((S)-1-(3-(4-chloro-1-methyl-3-(methylsulfonamido)-1H-indazol-7-yl)-6-(3-hydroxy-3-methylbut-1-yn-1-yl)pyridin-2-yl)-2-(3,5-difluorophenyl)ethyl)-2-((3bS,4aR)-3-chloro-5,5-difluoro-3b,4,4a,5-tetrahydro-1H-cyclopropa[3,4]cyclopenta[1,2-c]pyrazol-1-yl)acetamide] | 26.7 µM | 86% | 86%
Cn1nc(NS(C)(=O)=O)c2c(Cl)ccc(-c3ccc(C#CC(C)(C)O)nc3[C@H](Cc3cc(F)cc(F)c3)NC(=O)Cn3ncc4c3C(F)(F)[C@@H]3C[C@H]43)c21 [Compound 150, N—((S)-1-(3-(4-chloro-1-methyl-3-(methylsulfonamido)-1H-indazol-7-yl)-6-(3-hydroxy-3-methylbut-1-yn-1-yl)pyridin-2-yl)-2-(3,5-difluorophenyl)ethyl)-2-((3bS,4aR)-5,5-difluoro-3b,4,4a,5-tetrahydro-1H-cyclopropa[3,4]cyclopenta[1,2-c]pyrazol-1-yl)acetamide] | 28.9 µM | 87% | 87%
Cn1nc(NS(C)(=O)=O)c2c(Cl)ccc(-c3ccc(C#CC(C)(O)CO)nc3[C@H](Cc3cc(F)cc(F)c3)NC(=O)Cn3nc(C(F)(F)F)c4c3C(F)(F)[C@@H]3C[C@H]43)c21 (stereo partly drawn) [Compound 151, N-((1S)-1-(3-(4-chloro-1-methyl-3-(methylsulfonamido)-1H-indazol-7-yl)-6-(3,4-dihydroxy-3-methylbut-1-yn-1-yl)pyridin-2-yl)-2-(3,5-difluorophenyl)ethyl)-2-((3bS,4aR)-5,5-difluoro-3-(trifluoromethyl)-3b,4,4a,5-tetrahydro-1H-cyclopropa[3,4]cyclopenta[1,2-c]pyrazol-1-yl)acetamide] | 25.3 µM | 92% | 92%
Cn1nc(NS(C)(=O)=O)c2c(Cl)ccc(-c3ccc(C#CC(C)(O)CF)nc3[C@H](Cc3cc(F)cc(F)c3)NC(=O)Cn3nc(C(F)(F)F)c4c3C(F)(F)[C@@H]3C[C@H]43)c21 (stereo partly drawn) [Compound 152, N-((1S)-1-(3-(4-chloro-1-methyl-3-(methylsulfonamido)-1H-indazol-7-yl)-6-(4-fluoro-3-hydroxy-3-methylbut-1-yn-1-yl)pyridin-2-yl)-2-(3,5-difluorophenyl)ethyl)-2-((3b-S,4aR)-5,5-difluoro-3-(trifluoromethyl)-3b,4,4a,5-tetrahydro-1H-cyclopropa[3,4]cyclopenta[1,2-c]pyrazol-1-yl)acetamide] | 11.9 µM | 89% | 89%
Cn1nc(NS(C)(=O)=O)c2c(Cl)ccc(-c3ccc(C#CCOCCO)nc3[C@H](Cc3cc(F)cc(F)c3)NC(=O)Cn3nc(C(F)(F)F)c4c3C(F)(F)[C@@H]3C[C@H]43)c21 [Compound 153, N—((S)-1-(3-(4-chloro-1-methyl-3-(methylsulfonamido)-1H-indazol-7-yl)-6-(3-(2-hydroxyethoxy)prop-1-yn-1-yl)pyridin-2-yl)-2-(3,5-difluorophenyl)ethyl)-2-((3b-S,4aR)-5,5-difluoro-3-(trifluoromethyl)-3b,4,4a,5-tetrahydro-1H-cyclopropa[3,4]cyclopenta[1,2-c]pyrazol-1-yl)acetamide] | 18.6 µM | 98% | 98%
COCC(C)(O)C#Cc1ccc(-c2ccc(Cl)c3c(NS(C)(=O)=O)nn(C)c23)c([C@H](Cc2cc(F)cc(F)c2)NC(=O)Cn2nc(C(F)(F)F)c3c2C(F)(F)[C@@H]2C[C@H]32)n1 (stereo partly drawn) [Compound 154, N-((1S)-1-(3-(4-chloro-1-methyl-3-(methylsulfonamido)-1H-indazol-7-yl)-6-(3-hydroxy-4-methoxy-3-methylbut-1-yn-1-yl)pyridin-2-yl)-2-(3,5-difluorophenyl)ethyl)-2-((3bS,4aR)-5,5-difluoro-3-(trifluoromethyl)-3b,4,4a,5-tetrahydro-1H-cyclopropa[3,4]cyclopenta[1,2-c]pyrazol-1-yl)acetamide] | 12.5 µM | 97% | 97%
Cn1nc(NS(C)(=O)=O)c2c(C(F)F)ccc(-c3ccc(C#CC(C)(C)O)nc3[C@H](Cc3cc(F)cc(F)c3)NC(=O)Cn3nc(C(F)F)c4c3C(F)(F)[C@@H]3C[C@H]43)c21 [Compound 155I, N—((S)-1-(3-(4-(difluoromethyl)-1-methyl-3-(methylsulfonamido)-1H-indazol-7-yl)-6-(3-hydroxy-3-methylbut-1-yn-1-yl)pyridin-2-yl)-2-(3,5-difluorophenyl)ethyl)-2-((3b-S,4aR)-3-(difluoromethyl)-5,5-difluoro-3b,4,4a,5-tetrahydro-1H-cyclopropa[3,4]cyclopenta[1,2-c]pyrazol-1-yl)acetamide] | 26.8 µM | 99% | 99%
Cn1nc(NS(C)(=O)=O)c2c(Cl)ccc(-c3ccc(C#CC(C)(C)O)nc3[C@H](Cc3cc(F)cc(F)c3)NC(=O)Cn3nc(C4(O)CC4)c4c3CCCC4)c21 [Compound 156E, (S)—N-(1-(3-(4 chloro-1-methyl-3-(methylsulfonamido)-1H-indazol-7-yl)-6-(3-hydroxy-3-methylbut-1-yn-1-yl)pyridin-2-yl)-2-(3,5-difluorophenyl)ethyl)-2-(3-(1-hydroxycyclopropyl)-4,5,6,7-tetrahydro-1H-indazol-1-yl)acetamide] | 25.6 µM | 78% | 78%
Cn1nc(NS(C)(=O)=O)c2c(Cl)ccc(-c3ccc(C#CC(C)(O)C(F)F)nc3[C@H](Cc3cc(F)cc(F)c3)NC(=O)Cn3nc(C(F)(F)F)c4c3C(F)(F)[C@@H]3C[C@H]43)c21 (stereo partly drawn) [Compound 157G, N-((1S)-1-(3-(4-chloro-1-methyl-3-(methylsulfonamido)-1H-indazol-7-yl)-6-(4,4-difluoro-3-hydroxy-3-methylbut-1-yn-1-yl)pyridin-2-yl)-2-(3,5-difluorophenyl)ethyl)-2-((3b-S,4aR)-5,5-difluoro-3-(trifluoromethyl)-3b,4,4a,5-tetrahydro-1H-cyclopropa[3,4]cyclopenta[1,2-c]pyrazol-1-yl)acetamide] | 10.9 µM | 87% | 87%
CCOC(=O)c1nn(CC(=O)N[C@@H](Cc2cc(F)cc(F)c2)c2nc(C#CC(C)(C)O)ccc2-c2ccc(Cl)c3c(NS(C)(=O)=O)nn(C)c23)c2c1[C@H]1C[C@H]1C2(F)F [Compound 158G, (3bS,4aR)-ethyl 1-(2-(((S)-1-(3-(4-chloro-1-methyl-3-(methylsulfonamido)-1H-indazol-7-yl)-6-(3-hydroxy-3-methylbut-1-yn-1-yl)pyridin-2-yl)-2-(3,5-difluorophenyl)ethyl)amino)-2-oxoethyl)-5,5-difluoro-3b,4,4a,5-tetrahydro-1H-cyclopropa[3,4]cyclopenta[1,2-c]pyrazole-3-carboxylate] | 26.7 µM | 71% | 71%
Cn1nc(NS(C)(=O)=O)c2c(Cl)ccc(-c3ccc(C#CC(C)(C)O)nc3[C@H](Cc3cc(F)cc(F)c3)NC(=O)Cn3nc(C#N)c4c3C(F)(F)[C@@H]3C[C@H]43)c21 [Compound 159, N—((S)-1-(3-(4-chloro-1-methyl-3-(methylsulfonamido)-1H-indazol-7-yl)-6-(3-hydroxy-3-methylbut-1-yn-1-yl)pyridin-2-yl)-2-(3,5-difluorophenyl)ethyl)-2-((3bS,4aR)-3-cyano-5,5-difluoro-3b,4,4a,5-tetrahydro-1H-cyclopropa[3,4]cyclopenta[1,2-c]pyrazol-1-yl)acetamide] | 27.4 µM | 95% | 95%
Cn1nc(NS(C)(=O)=O)c2c(Cl)ccc(-c3ccc(C#CC(C)(C)O)nc3[C@H](Cc3cc(F)cc(F)c3)NC(=O)Cn3nc(I)c4c3C(F)(F)[C@@H]3C[C@H]43)c21 [Compound 160, N—((S)-1-(3-(4-chloro-1-methyl-3-(methylsulfonamido)-1H-indazol-7-yl)-6-(3-hydroxy-3-methylbut-1-yn-1-yl)pyridin-2-yl)-2-(3,5-difluorophenyl)ethyl)-2-((3bS,4aR)-5,5-difluoro-3-iodo-3b,4,4a,5-tetrahydro-1H-cyclopropa[3,4]cyclopenta[1,2-c]pyrazol-1-yl)acetamide] | 20.5 µM | 100% | 100%
